This passage reports IC50 results from ChEMBL document CHEMBL1127927, “Cycloheptimidazole based angiotensin II receptor antagonists. 4,5,6,7-tetrahydro-8-carboxymethylidene cycloheptimidazoles” (Bioorg Med Chem Lett, 1994).

This assay has as its target T1, Angiotensin II receptor (AT-1) type-1 (Rattus norvegicus, UniProt P29089+P25095).
T1 sequence (P29089 whole entry): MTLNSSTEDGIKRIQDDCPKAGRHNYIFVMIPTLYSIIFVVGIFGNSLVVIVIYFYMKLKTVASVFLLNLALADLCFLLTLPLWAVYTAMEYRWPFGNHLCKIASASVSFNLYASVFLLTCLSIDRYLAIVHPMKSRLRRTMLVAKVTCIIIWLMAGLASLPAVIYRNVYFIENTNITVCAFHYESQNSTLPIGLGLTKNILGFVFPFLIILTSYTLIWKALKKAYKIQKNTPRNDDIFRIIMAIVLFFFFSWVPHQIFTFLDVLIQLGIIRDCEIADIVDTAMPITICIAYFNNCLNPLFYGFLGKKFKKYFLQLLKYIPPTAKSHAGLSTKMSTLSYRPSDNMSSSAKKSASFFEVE
T1 sequence (P25095 whole entry): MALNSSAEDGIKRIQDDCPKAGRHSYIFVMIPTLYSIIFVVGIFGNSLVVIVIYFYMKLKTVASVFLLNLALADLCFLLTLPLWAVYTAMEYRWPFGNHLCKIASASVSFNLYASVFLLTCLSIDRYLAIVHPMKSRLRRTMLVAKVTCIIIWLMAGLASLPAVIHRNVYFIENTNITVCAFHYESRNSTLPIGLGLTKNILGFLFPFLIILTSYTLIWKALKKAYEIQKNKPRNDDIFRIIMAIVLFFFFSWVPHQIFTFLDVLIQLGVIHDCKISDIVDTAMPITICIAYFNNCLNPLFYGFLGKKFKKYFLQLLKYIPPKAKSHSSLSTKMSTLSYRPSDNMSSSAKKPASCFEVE
The assay is described as follows: Inhibition of binding of [125I]- Sar,Ileu-angiotensin to Angiotensin II receptor, type 1 in the radioligand binding assay using rat liver membrane preparations.

Usually IC50 stands for the midpoint of a concentration-inhibition curve. A low value points to higher potency.

The molecule `CCc1nc2c(n1Cc1ccc(-c3ccccc3-c3nn[nH]n3)cc1)/C(=C/C(=O)O)CCCC2` registered an IC50 of 5.45 nM.
